From ChEMBL document CHEMBL4049409, “Structure-based discovery of LpxC inhibitors” (Bioorg Med Chem Lett, 2017)
≈ marks a conversion by molar mass, not a printed value.

Experiments:
[1] = target: T1, UDP-3-O-acyl-N-acetylglucosamine deacetylase (Escherichia coli K-12, UniProt P0A725); experiment: Inhibition of LpxC in Escherichia coli isolate 35 ATCC 25922; design: species or system Escherichia coli ATCC 25922
T1 sequence (P0A725 whole entry): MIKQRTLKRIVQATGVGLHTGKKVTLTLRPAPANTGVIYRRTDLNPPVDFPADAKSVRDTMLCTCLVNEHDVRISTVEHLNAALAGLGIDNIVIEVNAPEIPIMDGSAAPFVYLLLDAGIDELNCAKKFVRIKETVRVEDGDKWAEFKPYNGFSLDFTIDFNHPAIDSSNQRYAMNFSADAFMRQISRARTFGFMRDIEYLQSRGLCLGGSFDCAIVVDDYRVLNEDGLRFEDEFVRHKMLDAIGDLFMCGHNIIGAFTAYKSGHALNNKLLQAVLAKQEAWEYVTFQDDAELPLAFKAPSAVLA

Escherichia coli = experiment: Antibacterial activity against Escherichia coli isolate 35 ATCC 25922; type: functional
Klebsiella pneumoniae = experiment: Antibacterial activity against Klebsiella pneumoniae isolate 21 ATCC 4352; type: functional
[2] = target: T2, UDP-3-O-acyl-N-acetylglucosamine deacetylase (Pseudomonas aeruginosa (strain ATCC 15692 / PAO1 / 1C / PRS 101 / LMG12228), UniProt P47205); experiment: Inhibition of LpxC in Pseudomonas aeruginosa isolate 44 ATCC 27853
T2 sequence (P47205 whole entry): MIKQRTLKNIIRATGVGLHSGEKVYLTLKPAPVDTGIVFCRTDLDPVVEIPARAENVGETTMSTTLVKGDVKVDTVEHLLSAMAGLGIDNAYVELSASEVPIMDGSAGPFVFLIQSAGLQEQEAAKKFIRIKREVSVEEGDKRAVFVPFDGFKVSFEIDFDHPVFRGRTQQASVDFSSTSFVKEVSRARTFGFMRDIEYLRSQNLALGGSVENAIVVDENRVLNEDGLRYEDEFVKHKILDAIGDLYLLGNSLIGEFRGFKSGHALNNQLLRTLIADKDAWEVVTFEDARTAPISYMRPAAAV

Pseudomonas aeruginosa [3] = experiment: Antibacterial activity against Pseudomonas aeruginosa isolate 44 ATCC 27853; type: functional
Pseudomonas aeruginosa [4] = experiment: Antibacterial activity against Pseudomonas aeruginosa isolate 839 harboring mexAB-oprM deletion mutant; type: functional
Pseudomonas aeruginosa [5] = experiment: Antibacterial activity against Pseudomonas aeruginosa isolate 847; type: functional
[6] = target: T2, UDP-3-O-acyl-N-acetylglucosamine deacetylase; experiment: Inhibition of LpxC in Pseudomonas aeruginosa isolate 847
[7] = Inhibition of LpxC in Klebsiella pneumoniae isolate 21 ATCC 4352
[8] = Inhibition of LpxC in Acinetobacter baumannii focus ID 961025
Acinetobacter baumannii = experiment: Antibacterial activity against Acinetobacter baumannii focus ID 961025; type: functional

SMILES | IC50 [1] | MIC (Escherichia coli) | MIC (Klebsiella pneumoniae) | IC50 [2] | MIC (Pseudomonas aeruginosa [3]) | MIC (Pseudomonas aeruginosa [4]) | MIC (Pseudomonas aeruginosa [5]) | IC50 [6] | IC50 [7] | IC50 [8] | MIC (Acinetobacter baumannii)
C[C@@H](O)[C@H](N[C@H]1CCc2cc(C#Cc3ccc(CN4CC(O)C4)cc3)ccc21)C(=O)NO | 127 nM | 4 µg/mL (≈ 9.18 µM) | 0.125 µg/mL (≈ 0.287 µM) | 63 nM | 4 µg/mL (≈ 9.18 µM) | 0.5 µg/mL (≈ 1.15 µM) |  |  |  |  | 
CC(C)(N)[C@H](N[C@H]1CCc2cc(C#Cc3ccc(CN4CCOCC4)cc3)ccc21)C(=O)NO | 2 nM | 0.5 µg/mL (≈ 1.08 µM) |  | 6 nM | 4 µg/mL (≈ 8.65 µM) | 0.25 µg/mL (≈ 0.54 µM) | 0.5 µg/mL (≈ 1.08 µM) | 1 nM |  |  | 
C[C@@H](O)[C@H](N[C@H]1CCc2cc(C#Cc3ccc(CN4CC[C@@H](O)C4)cc3)ccc21)C(=O)NO | 51 nM | 2 µg/mL (≈ 4.45 µM) | 0.5 µg/mL (≈ 1.11 µM) | 26 nM | 8 µg/mL (≈ 17.8 µM) | 1 µg/mL (≈ 2.22 µM) |  |  | 38 nM |  | 
C[C@@H](O)[C@H](N[C@H]1CCc2cc(C#Cc3ccc(Cn4ccnc4CO)cc3)ccc21)C(=O)NO | 6 nM | 1 µg/mL (≈ 2.17 µM) |  |  | 4 µg/mL (≈ 8.69 µM) | 0.5 µg/mL (≈ 1.09 µM) | 4 µg/mL (≈ 8.69 µM) |  | 4 nM |  | 
CC(C)(O)[C@H](N[C@H]1CCc2cc(C#Cc3ccc(CN4CCOCC4)cc3)ccc21)C(=O)NO | 1 nM | 0.25 µg/mL (≈ 0.539 µM) | < 0.03 µg/mL | 3 nM | 32 µg/mL (≈ 69 µM) | 0.25 µg/mL (≈ 0.539 µM) |  | 0.4 nM |  |  | 
C[C@@H](O)[C@H](N[C@H]1CCc2cc(C#Cc3ccc(CN4CCN(CCO)CC4)cc3)ccc21)C(=O)NO | 20 nM | 2 µg/mL (≈ 4.06 µM) | < 0.125 µg/mL | 14 nM | 4 µg/mL (≈ 8.12 µM) | 1 µg/mL (≈ 2.03 µM) |  |  | 21 nM |  | 
CC(C)(N)[C@H](NC1COCc2cc(C#Cc3ccc(Cn4ccnc4CO)cc3)ccc21)C(=O)NO (some centres undefined) | 3 nM | 4 µg/mL (≈ 8.17 µM) |  | 5 nM | 4 µg/mL (≈ 8.17 µM) | 0.5 µg/mL (≈ 1.02 µM) | 16 µg/mL (≈ 32.7 µM) |  |  |  | 
CC(C)(N)[C@H](NC1COCc2cc(C#Cc3ccc(CN4CCOCC4)cc3)ccc21)C(=O)NO (some centres undefined) | 5 nM | 0.5 µg/mL (≈ 1.04 µM) |  | 8 nM | 4 µg/mL (≈ 8.36 µM) | 0.25 µg/mL (≈ 0.522 µM) | 4 µg/mL (≈ 8.36 µM) |  |  |  | 
C[C@@H](O)[C@H](NC1COCc2cc(C#Cc3ccccc3)ccc21)C(=O)NO (some centres undefined) | 2 nM | 0.25 µg/mL (≈ 0.682 µM) | < 0.125 µg/mL | 14 nM | 64 µg/mL (≈ 175 µM) |  |  |  | 1 nM | 49 nM | 32 µg/mL (≈ 87.3 µM)
C[C@@H](O)[C@H](NC1CCc2cc(C#Cc3ccc(CN4CCOCC4)cc3)ccc21)C(=O)NO (some centres undefined) | 2 nM | 0.25 µg/mL (≈ 0.556 µM) | 0.125 µg/mL (≈ 0.278 µM) | 4 nM | 8 µg/mL (≈ 17.8 µM) |  |  |  | 2 nM | 382 nM | > 64 µg/mL
C[C@@H](O)[C@H](N[C@H]1CCc2cc(C#Cc3ccc(CN4CCN(C)CC4)cc3)ccc21)C(=O)NO | 53 nM | 0.25 µg/mL (≈ 0.54 µM) | 0.125 µg/mL (≈ 0.27 µM) | 30 nM | 8 µg/mL (≈ 17.3 µM) | 1 µg/mL (≈ 2.16 µM) |  |  | 32 nM |  | 
CNCCOCc1ccc(C#Cc2ccc3c(c2)CC[C@@H]3N[C@H](C(=O)NO)[C@@H](C)O)cc1 | 15 nM | 4 µg/mL (≈ 9.14 µM) | 0.25 µg/mL (≈ 0.571 µM) | 6 nM | 16 µg/mL (≈ 36.6 µM) | 2 µg/mL (≈ 4.57 µM) |  |  | 11 nM |  | 
C[C@@H](O)[C@H](N[C@@H]1CCc2cc(C#Cc3ccc(CN4CCOCC4)cc3)ccc21)C(=O)NO | 3 nM | 0.5 µg/mL (≈ 1.11 µM) | 0.125 µg/mL (≈ 0.278 µM) | 8 nM | 128 µg/mL (≈ 285 µM) |  |  |  | 7 nM | 1990 nM | 64 µg/mL (≈ 142 µM)
C[C@@H](O)[C@H](NC1CCCc2cc(C#Cc3ccccc3)ccc21)C(=O)NO (some centres undefined) | 1 nM | 1 µg/mL (≈ 2.74 µM) | 0.25 µg/mL (≈ 0.686 µM) | 5 nM | 32 µg/mL (≈ 87.8 µM) |  |  |  | 0.2 nM | 40 nM | 16 µg/mL (≈ 43.9 µM)
C[C@@H](O)[C@H](NC1CCN(C)c2cc(C#Cc3ccc(CN4CCOCC4)cc3)ccc21)C(=O)NO (some centres undefined) | 2 nM | 2 µg/mL (≈ 4.18 µM) | 0.125 µg/mL (≈ 0.261 µM) | 18 nM | > 32 µg/mL |  |  |  | 2 nM | 331 nM | > 32 µg/mL
C[C@@H](O)[C@H](N[C@H]1CCc2cc(C#Cc3ccc(CN4CCCCC4)cc3)ccc21)C(=O)NO | 10 nM | 0.5 µg/mL (≈ 1.12 µM) | 0.5 µg/mL (≈ 1.12 µM) | 10 nM | 16 µg/mL (≈ 35.7 µM) | 2 µg/mL (≈ 4.47 µM) |  |  | 5 nM |  | 
CCCCC(N[C@H](C(=O)NO)[C@@H](C)O)c1ccc(C#Cc2ccccc2)cc1 (some centres undefined) | 534 nM | 64 µg/mL (≈ 168 µM) | 2 µg/mL (≈ 5.26 µM) | 616 nM | > 128 µg/mL |  |  |  | 724 nM | 1460 nM | > 128 µg/mL
Cc1nccn1Cc1ccc(C#Cc2ccc3c(c2)CC[C@@H]3N[C@H](C(=O)NO)[C@@H](C)O)cc1 | 1 nM | 0.25 µg/mL (≈ 0.562 µM) | 0.06 µg/mL (≈ 0.135 µM) | 4 nM | 8 µg/mL (≈ 18 µM) | 0.25 µg/mL (≈ 0.562 µM) |  |  | 2 nM |  | 
C[C@@H](O)[C@H](NC1CCCc2cc(C#Cc3ccc(CN4CCOCC4)cc3)ccc21)C(=O)NO (some centres undefined) | 0.3 nM | 0.25 µg/mL (≈ 0.539 µM) | < 0.125 µg/mL | 2 nM | 32 µg/mL (≈ 69 µM) |  |  |  | 0.2 nM | 80 nM | 128 µg/mL (≈ 276 µM)
C[C@@H](O)[C@H](NC1CCOc2cc(C#Cc3ccc(CN4CCOCC4)cc3)ccc21)C(=O)NO (some centres undefined) | 1 nM | 2 µg/mL (≈ 4.3 µM) | < 0.125 µg/mL | 6 nM | 16 µg/mL (≈ 34.4 µM) |  |  |  | 2 nM | 83 nM | 64 µg/mL (≈ 137 µM)
COC1CCN(Cc2ccc(C#Cc3ccc4c(c3)CC[C@@H]4N[C@H](C(=O)NO)[C@@H](C)O)cc2)CC1 | 5 nM | 0.5 µg/mL (≈ 1.05 µM) | 0.06 µg/mL (≈ 0.126 µM) | 3 nM | 8 µg/mL (≈ 16.8 µM) | 1 µg/mL (≈ 2.09 µM) |  |  | 6 nM |  | 
CC(C)(O)[C@H](N[C@H]1CCc2cc(C#Cc3ccc(CN4CCN(CCO)CC4)cc3)ccc21)C(=O)NO | 41 nM | 4 µg/mL (≈ 7.9 µM) |  | 14 nM | 4 µg/mL (≈ 7.9 µM) | 0.5 µg/mL (≈ 0.987 µM) | 32 µg/mL (≈ 63.2 µM) |  |  |  | 
C[C@@H](O)[C@H](N[C@H]1CCc2cc(C#Cc3ccc(Cn4ccnc4CCO)cc3)ccc21)C(=O)NO | 5 nM | 1 µg/mL (≈ 2.11 µM) |  | 5 nM | 4 µg/mL (≈ 8.43 µM) | 0.125 µg/mL (≈ 0.263 µM) | 4 µg/mL (≈ 8.43 µM) |  | 3 nM |  | 
